Measurements published in patent US10450317B2, “Notch pathway signaling inhibitor compounds” (Eli Lilly and Company, priority 2015, dated 2019).

What was measured:
mouse Notch1 = test: Notch1 N1ICD nuclear accumulation cellular imaging assay; assay type: cell-based; settings: HEK293ΔE12 cells, 24 hours treatment, n=2; read-out: average IC50 for the nuclear N1ICD signal
Procedure: (§1) HEK293ΔE12 cells (HEK293 cells are engineered to stably express mouse Notch1 cDNA coding for amino acid 1703-2183, Np_932740.3, (Full length mouse Notch 1 protein precursor: SEQ ID NO:1) with 23 amino acid signal peptide sequence, […] (SEQ ID NO:2), at its N-terminus) are plated at 5000 cells/well in 96 well plates, incubated in Dulbecco's Modified. Eagle's Medium (DMEM)-high glucose with 5% fetal bovine serum (FBS) at 37° C., 5% CO2 for 24 hours. Cells are treated with test compound, dosing at 10 points of 1:3 dilutions across the range of 1000 nM to 0.05 nM, and with final dimethyl sulfoxide (DMSO) concentration at 0.2%. […] Plates are scanned with ACUMEN EXPLORER™ Laser-scanning fluorescence microplate cytometer (TTP LABTECH LTD) to measure total cell nuclear count/well and total nuclear area/well with fluorescence at 655 nm-705 nm (emission of DNA bound propidium iodide) and fluorescence of antibody binding to N1ICD in nuclear region at 505 nm-530 nm. The main assay output is a ratio of total fluorescence of nuclear N1ICD to total nuclear area, the normalized nuclear N1ICD signal. […] Concentration response and the IC50 are determined by curve fitting to a four parameter logistic for the nuclear N1ICD signal, while the % cell number is plotted in the same graph for cytotoxicity profiling.

HEK293ΔE12 cells = test: Relative cytotoxicity profiling (% cell number) in the N1ICD imaging assay; assay type: cell-based, human; settings: up to 1000 nM concentration, 24 hours treatment
Procedure: as §1

mAtoh1 = test: Induction of mAtoh1 expression in otic spheres (qRT-PCR); assay type: cell-based, mice; settings: 7 days, fold-induction relative to DMSO control, ± SEM
Procedure: Generally, organ of Corti cell isolation is carried out on Day 0, largely by the method in Oshima et al., Methods Mol Biol., 2009; 493: 141-162. Cell culture and propagation are carried out for 3-4 days. Cell plating and test compound treatment takes place on Day 3 or 4. Attachment and differentiation is allowed to take place over the next 7 days. On Days 10 or 11, cell lysis and RNA isolation is carried out. TagMan qRT-PCR is carried out on Day 12 and the results analyzed on Days 13-15 for Atoh1 and Tbp1 expression.
Surrounding tissue from the petrous portion of the temporal bone are removed from 1 to 4 day-old postnatal mice (transgenic strain: mAtoh1-driven nGFP; Lumpkin E A, et al., Gene Expr Patterns, 2003; (36): 389-95 of both sexes. The conch shaped cochlea is separated from the vestibular system using forceps. At this stage of development, the bony labyrinth is not completely calcified and is easily dissected using forceps. Carefully open the bony labyrinth of the cochlea and remove the spiral ligament and attached organ of Corti coiled together along the spiral of the modiolus by unwinding apically from the modiolus. Starting at the base, separate the spiral ligament from the organ of Corti using fine forceps.
Transfer the dissected organ of Corti (OC) into individual 1.5 ml tubes filled with 850 ice cold HBSS. Transfer up to 12 OC tissues into the same tube, Quick-spin down OC tissues and remove the HBSS. Disassociate the cells by adding 100 μl pre-warmed TrypLE™ Select (Life Technologies) and incubate at 37° C. for 13 min. Quick spin down dissociated OC tissues. Remove TrypLE™ Select. Add 100 μl of Medium A (DMEM/F12, N2 supplement (LifeTechnologies), B27 supplement (LifeTechnologies), ampicillin (50 μg/ml) and Fungizone (LifeTechnologies), EGF (20 ng/ml), bFGF (10 ng/ml), IGF-1 50 ng/ml), and heparan sulfate (50 ng/ml)). The dissected and digested tissue is then triturated with a P200 pipette tip. Remove any cell aggregates and debris; transfer the cell suspension and wash through a pre-wetted 70 μm cell strainer to pool the cell suspension in a single fresh culture tube. Rinse dissociation tubes and the cell strainer with sufficient Medium A and pool with the cell suspension. Count cell density with hemocytometer or Countess® (Life Technologies). Add fresh Medium A to cell suspension to achieve a final plating density of 1.0E5 cell/ml and plate into ultra-low attachment cultureware, T-75 (Greiner).
The dissociated, single cells are cultured in an ultra-low attachment cultureware, (Greiner) in Medium A for 3 to 4 days in a 5% CO2 humidified incubator at 37° C. to obtain clonally grown spheres, termed first generation spheres, from the floating cells. If cells stick to the non-adherent dishes during the culture period they can be dislodged by gentle mixing.
After culturing the spheres for 3-4 days, visually count the spheres by microscope to standardize the seeding density of otic spheres per ml for this step. Collect the cells by centrifugation and re-suspend spheres in Basic Medium at a concentration of approximately 2000 spheres per ml. Seed the spheres in a volume of 150 μl per well of a cell culture-treated 96 well plate to obtain approximately 300 spheres per well. Treat the spheres with experimental agents in quadruplicate at a final volume of 200 μl in Basic Medium (DMEM/F12, N2 supplement (LifeTechnologies) B27 supplement (LifeTechnologies), ampicillin (50 μg/ml) and Fungizone (LifeTechnologies). Culture the treated spheres for 7 days in a humidified temperature controlled incubator at 5% CO2, 37° C. Remove medium and proceed with RNA extraction.
Add buffer RLT plus (Qiagen) supplemented with 1% Beta-mercaptoethanol, 175 μl per well. Add 2.5 μl of 4 ng/μl of RNA carrier (RNeasy® Plus Micro Kit; Qiagen) diluted in Buffer RLT Plus into each well before RNA extraction. Total RNA is extracted using the RNeasy® Plus Micro Kit (Qiagen) according to the manufacturer's instructions. […]

Compound	IC50 (mouse Notch1) [nM]	effect on cell number (cytotoxicity profiling) (HEK293ΔE12 cells)	RQ at 10 nM (Atoh1 expression) (mAtoh1)	RQ at 100 nM (Atoh1 expression) (mAtoh1)	RQ at 1 μM (Atoh1 expression) (mAtoh1)
C[C@H](NC(=O)CCC(F)(F)F)C(=O)NC1C(=O)C=C2N(CCC2(C)C)c2ncccc21 (single isomer, unassigned) [Compound 2, Isomer 2]	1.55	Neither compound affects cell number	1.14 ± 0.07	1.21 ± 0.13	1.57 ± 0.11
COc1ccc2c(c1)N1CCC(C)(C)C1=CC(=O)C2NC(=O)[C@H](C)NC(=O)CCC(F)(F)F (single isomer, unassigned) [Compound 1, Isomer 2]	0.37	Neither compound affects cell number	1.43 ± 0.17	1.76 ± 0.17	1.64 ± 0.13
